Each structure is given as a SMILES string. Where a name gives a salt, the structure may show the parent alone.

Our source for the fold induction values is patent US8759535B2, “Substituted fused imidazole derivatives, pharmaceutical compositions, and methods of use thereof” (High Point Pharmaceuticals, LLC, priority 2010, dated 2014).

The test concerns HMOX1. Briefly: HMOX1 Protein Assay (immunostaining of HO-1 in NHLF cells, GE InCell 1000). The test is classed as cell-based. The settings on record: Homo sapiens, fold change above DMSO treated cells, 16 h; for fold induction at 5 µM: 5 μM compound; for fold induction at 3 µM: 3 μM compound (asterisk). An outline of the steps:
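Fold induction of HO-1 over vehicle, normally at 5 μM compound (asterisk marks 3 μM), in 0.8% DMSO medium. Normal human lung fibroblasts were treated 16 h, then paraformaldehyde-fixed, anti-HO-1/Alexa 488 stained with Hoechst, and read by high-content imaging.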

Turning to `Cn1c(Nc2nc3ccc(OC(F)(F)F)cc3s2)nc2cc(C(=O)NC3CCS(=O)(=O)C3)ccc21` (centres unmarked) [Example 121, 1-Methyl-2-(6-trifluoromethoxy-benzothiazol-2-ylamino)-1H-benzimidazole-5-carboxylic acid (1,1-dioxo-tetrahydro-1λ^6-thiophen-3-yl)-amide], the fold induction at 5 µM stood at 29.6.
Same read-out and setting: the result for `C[C@H](NC(=O)c1ccc2c(c1)nc(Nc1nc3ccc(OC(F)(F)F)cc3s1)n2C)C(=O)O` [Example 146, (S)-2-{[1-Methyl-2-(6-trifluoromethoxy-benzothiazol-2-ylamino)-1H-benzoimidazole-5-carbonyl]-amino}-propionic acid] reads 3.7; that for `Cn1c(Nc2nc3ccc(Cl)cc3s2)nc2cc(C(=O)NC3CCN(S(C)(=O)=O)CC3)ccc21` [Example 320, 2-(6-Chloro-benzothiazol-2-ylamino)-1-methyl-1H-benzoimidazole-5-carboxylic acid (1-methanesulfonyl-piperidin-4-yl)-amide], 20.
The compound `C[C@H](O)CNC(=O)c1ccc2c(c1)nc(Nc1nc3ccc(Cl)cc3s1)n2C` [Example 204, 2-(6-Chloro-benzothiazol-2-ylamino)-1-methyl-1H-benzoimidazole-5-carboxylic acid ((S)-2-hydroxy-propyl)-amide] registered a fold induction at 3 µM of 19.3.
On to `CSCCNC(=O)c1ccc2c(c1)nc(Nc1nc3ccc(OC(F)(F)F)cc3s1)n2C` [Example 101, 1-Methyl-2-(6-trifluoromethoxy-benzothiazol-2-ylamino)-1H-benzoimidazole-5-carboxylic acid (2-methylsulfanyl-ethyl)-amide], for which the fold induction at 5 µM came to 11.2.
Same read-out and setting: the result for `CCOCCNC(=O)c1ccc2c(c1)nc(Nc1nc3ccc(Cl)cc3s1)n2CC` [Example 179, 2-(6-Chloro-benzothiazol-2-ylamino)-1-ethyl-1H-benzoimidazole-5-carboxylic acid (2-ethoxy-ethyl)-amide] reads 24.4.
As to `Cn1c(Nc2nc3ccc(OC(F)(F)F)cc3s2)nc2ccc(C(=O)NCCOCCO)cc21` [Example 286, 3-Methyl-2-(6-trifluoromethoxy-benzothiazol-2-ylamino)-3H-benzoimidazole-5-carboxylic acid [2-(2-hydroxy-ethoxy)-ethyl]-amide], the fold induction at 5 µM was determined as 61.1.
`C[C@@H](CO)CCNC(=O)c1ccc2c(c1)nc(Nc1nc3ccc(Cl)cc3s1)n2C` [Example 224, 2-(6-Chloro-benzothiazol-2-ylamino)-1-methyl-1H-benzoimidazole-5-carboxylic acid ((R)-4-hydroxy-3-methyl-butyl)-amide] came in with a fold induction at 3 µM of 15.5.
As to `CCn1c(Nc2nc3ccc(C(F)(F)F)cc3s2)nc2cc(C(=O)NCCSC)ccc21` [Example 185, 1-Ethyl-2-(6-trifluoromethyl-benzothiazol-2-ylamino)-1H-benzoimidazole-5-carboxylic acid (2-methylsulfanyl-ethyl)-amide], the fold induction at 5 µM stood at 11.2.
The same measure, in the same setting: the same measure for `COc1cc2c(cc1C(=O)NCCN1CCOCC1)nc(Nc1nc3ccc(OC(F)(F)F)cc3s1)n2C` [Example 66, 6-Methoxy-1-methyl-2-(6-trifluoromethoxy-benzothiazol-2-ylamino)-1H-benzoimidazole-5-carboxylic acid (2-morpholin-4-yl-ethyl)-amide]: 20.8; for `CN(C)CC(=O)NCCNC(=O)c1ccc2c(c1)nc(Nc1nc3ccc(OC(F)(F)F)cc3s1)n2C` [Example 323, 1-Methyl-2-(6-trifluoromethoxy-benzothiazol-2-ylamino)-1H-benzoimidazole-5-carboxylic acid [2-(2-dimethylamino-acetylamino)-ethyl]-amide]: 113; for `Cn1c(Nc2nc3ccc(Cl)cc3s2)nc2cc(C(=O)N[C@@H]3CCCNC3)ccc21` [Example 309, 2-(6-Chloro-benzothiazol-2-ylamino)-1-methyl-1H-benzoimidazole-5-carboxylic acid (R)-piperidin-3-ylamide hydrochloride]: 21.5.
The compound `CCOCCCNC(=O)c1ccc2c(c1)nc(Nc1nc3ccc(OC(F)(F)F)cc3s1)n2C` [Example 14, 1-Methyl-2-(6-trifluoromethoxy-benzothiazol-2-ylamino)-1H-benzoimidazole-5-carboxylic acid (3-ethoxy-propyl)-amide] yielded a fold induction at 5 µM of 22.
Same read-out and setting: the same measure for `Cn1c(Nc2nc3ccc(OC(F)(F)F)cc3s2)nc2cc(C(=O)NCCN3CCOCC3)c(F)cc21` [Example 59, 6-Fluoro-1-methyl-2-(6-trifluoromethoxy-benzothiazol-2-ylamino)-1H-benzoimidazole-5-carboxylic acid (2-morpholin-4-yl-ethyl)-amide]: 49.8.
Take `C[C@H](O)CNC(=O)c1ccc2c(c1)nc(Nc1nc3ccc(C(F)(F)F)cc3s1)n2C` [Example 206, 1-Methyl-2-(6-trifluoromethyl-benzothiazol-2-ylamino)-1H-benzoimidazole-5-carboxylic acid ((S)-2-hydroxy-propyl)-amide]: the fold induction at 3 µM is 27.
For the compound `C[C@@H](O)CN1CC[C@@H](NC(=O)c2ccc3c(c2)nc(Nc2nc4ccc(C(F)(F)F)cc4s2)n3C)C1` [Example 297, 1-Methyl-2-(6-trifluoromethyl-benzothiazol-2-ylamino)-1H-benzoimidazole-5-carboxylic acid [(R)-1-((R)-2-hydroxy-propyl)-pyrrolidin-3-yl]-amide], the fold induction at 3 µM worked out at 24.4.
In turn, `Cn1c(Nc2nc3ccc(Cl)cc3s2)nc2cc(C(=O)NCCN)ccc21` [Example 343, 2-(6-Chloro-benzothiazol-2-ylamino)-1-methyl-1H-benzoimidazole-5-carboxylic acid (2-amino-ethyl)-amide hydrochloride] returned a fold induction at 5 µM of 21.1.
On the same count and under the same terms, the result for `CCNC(=O)c1cnc2c(c1)nc(Nc1nc3ccc(OC(F)(F)F)cc3s1)n2C` [Example 76, 3-Methyl-2-(6-trifluoromethoxy-benzothiazol-2-ylamino)-3H-imidazo[4,5-b]pyridine-6-carboxylic acid ethylamide] reads 22.5.
For the compound `Cn1c(Nc2nc3ccc(C(F)(F)F)cc3s2)nc2cc(C(=O)NCC(=O)N3CC[C@@H](O)C3)ccc21` [Example 402, 1-Methyl-2-(6-trifluoromethyl-benzothiazol-2-ylamino)-1H-benzoimidazole-5-carboxylic acid [2-((R)-3-hydroxy-pyrrolidin-1-yl)-2-oxo-ethyl]-amide], the fold induction at 3 µM was determined as 24.
`CCS(=O)(=O)CCNC(=O)c1ccc2c(c1)nc(Nc1nc3ccc(OC(F)(F)F)cc3s1)n2C` [Example 109, 1-Methyl-2-(6-trifluoromethoxy-benzothiazol-2-ylamino)-1H-benzimidazole-5-carboxylic acid (2-ethanesulfonyl-ethyl)-amide] yielded a fold induction at 5 µM of 20.9.
On to `COC(=O)c1ccc2c(c1)nc(Nc1nc3ccc(OC(F)(F)F)cc3s1)n2C(C)C` [Example 158, 1-Isopropyl-2-(6-trifluoromethoxy-benzothiazol-2-ylamino)-1H-benzoimidazole-5-carboxylic acid methyl ester], for which the fold induction at 5 µM turned out to be 1.7.
On the same count and under the same terms, the result for `Cn1c(Nc2nc3ccc(OC(F)(F)F)cc3s2)nc2cc(C(=O)NCCCCCO)ccc21` [Example 226, 1-Methyl-2-(6-trifluoromethoxy-benzothiazol-2-ylamino)-1H-benzoimidazole-5-carboxylic acid (5-hydroxy-pentyl)-amide] reads 23.3; that for `CCNC(=O)c1ccc2c(c1)nc(Nc1nc3ccc(C(F)(F)F)cc3s1)n2CC` [Example 181, 1-Ethyl-2-(6-trifluoromethyl-benzothiazol-2-ylamino)-1H-benzoimidazole-5-carboxylic acid ethylamide], 23.
`Cn1c(Nc2nc3ccc(C(F)(F)F)cc3s2)nc2cc(C(=O)NCC(=O)N3CCOCC3)ccc21` [Example 422, 1-Methyl-2-(6-trifluoromethyl-benzothiazol-2-ylamino)-1H-benzoimidazole-5-carboxylic acid (2-morpholin-4-yl-2-oxo-ethyl)-amide] showed a fold induction at 3 µM of 25.
On the same count and under the same terms, the same measure for `CC(C)c1ccc2nc(Nc3nc4cc(C(=O)NCC(=O)N(C)C)ccc4n3C)sc2c1` [Example 365, 2-(6-Isopropyl-benzothiazol-2-ylamino)-1-methyl-1H-benzoimidazole-5-carboxylic acid dimethylcarbamoylmethyl-amide]: 20.1.
For `Cn1c(Nc2nc3ccc(OC(F)(F)F)cc3s2)nc2cc(C(=O)N[C@H]3CC[C@H](O)CC3)ccc21` [Example 52, 1-Methyl-2-(6-trifluoromethoxy-benzothiazol-2-ylamino)-1H-benzoimidazole-5-carboxylic acid (trans-4-hydroxy-cyclohexyl)-amide], the fold induction at 5 µM is 10.
The same measure, in the same setting: the result for `Cn1c(Nc2nc3ccc(OC(F)(F)F)cc3s2)nc2cc(C(=O)NCC(=O)N3CCC(O)CC3)ccc21` [Example 435, 1-Methyl-2-(6-trifluoromethoxy-benzothiazol-2-ylamino)-1H-benzoimidazole-5-carboxylic acid [2-(4-hydroxy-piperidin-1-yl)-2-oxo-ethyl]-amide] reads 30.2; that for `Cn1c(Nc2nc3ccc(OC(F)(F)F)cc3s2)nc2cc(C(=O)NCCOCC(N)=O)ccc21` [Example 267, 1-Methyl-2-(6-trifluoromethoxy-benzothiazol-2-ylamino)-1H-benzoimidazole-5-carboxylic acid (2-carbamoylmethoxy-ethyl)-amide], 58.8.
For the compound `Cn1c(Nc2nc3ccc(C(F)(F)F)cc3s2)nc2cc(C(=O)NCC(=O)N3CCC[C@H](O)C3)ccc21` [Example 434, 1-Methyl-2-(6-trifluoromethyl-benzothiazol-2-ylamino)-1H-benzoimidazole-5-carboxylic acid [2-((S)-3-hydroxy-piperidin-1-yl)-2-oxo-ethyl]-amide], the fold induction at 3 µM is 34.6.
